Experimental data: US9738610B2, “Indazole derivatives and uses thereof” (Whitehead Institute for Biomedical Research, priority 2012, dated 2017)
Read-outs that look alike come from different tables or passages of the source.

Legend:
[1] = test system: C. albicans CaCi-2; test: CaCi-2 growth inhibition in the presence of 8 μg/ml fluconazole (Alamar Blue); assay type: cell-based, Candida albicans
Description: Fluconazole was obtained from Sequoia Research Products, Ltd. and prepared in a 2 mg/ml stock solution in phosphate buffered saline (PBS). […] PBS (Catalog No. 21-040-CV) without calcium and magnesium was obtained from Cellgro. Penicillin/Streptomycin (Pen/Strep) was obtained from Gibco and prepared 100× in PBS.
RPMI medium (1×) was prepared by dissolving 10.4 g powdered medium in 800 ml water. A buffer of 34.52 g MOPS was added. While stirring, pH was adjusted to 7.0 with 10 N NaOH. Next, 10 ml uridine solution and 50 ml glucose solution were added. The final volume was adjusted to 1000 ml, and filter sterilized.
The following yeast strains were used in this study: C. albicans CaCi-2. Fungal inoculum was prepared as follows: 500 μl of strain was inoculated from cryopreserved stock into a 250-ml shaker flask containing 30 ml growth medium and shaken overnight at 30° C. The optical density (OD 600) of 1 ml fungal culture in a cuvette was read using a standard optical density reader (Eppendorf BioPhotometer Plus), with growth medium as a background blank. The desired volume of fungal inoculums was diluted to desired volume of fungal inoculums according to the following formula: (1/OD measured)×(Desired Final Volume of Inoculum)×0.3=Volume of fungal culture (μl) to add to desired volume of growth medium. When added to media in wells, this yields a calculated starting OD of the fungal inoculum of 0.00015.
Fluconazole stock solution was added to the fungal inoculum to achieve 8 μg/ml. Pen/Strep was added to the media to a 1% concentration (v/v). A Thermo Combi nL was used to dispense 20 μl/well of assay media into all wells. Geldanamycin was dispensed in positive control wells using Thermo Combi nL for a final concentration of 3 μM. Then, 100 nl of test compound was pinned from compound plates into assay plates using a CyBi-Well pin tool. A further 20 μl/well of culture was dispensed into the assay media in all wells. The plates were incubated in a humidified (90% humidity) Liconic incubator at 37° C. without agitation for 48 hours. Alamar Blue was diluted 1:40 in Ca/Mg-free PBS. To all plates, […] of the diluted Alamar Blue was added to the plates to a final dilution factor of 1:200. The plates were incubated for an additional 2 hours. Then, Relative Fluorescence Intensity (RFU) of each well was read on standard plate reader as a measure of relative fungal growth.

[2] = test system: C. albicans CaCi-8; test: microbe, parasite or virus in culture; assay type: cell-based, Candida albicans
Description: This subset was re-subjected to the primary assay and was also tested concurrently in two secondary assays. Secondary assay 1 measured chemosensitization of the more resistant CaCi-8 strain. Secondary assay 2 eliminated anything with inherently antifungal activity. […] A final assay (secondary assay 3) was incorporated to discard any compound displaying toxicity to mammalian fibroblasts. […] This screening campaign is also illustrated in FIG. 3B.
Those that inhibited growth in the resistant strain were also tested for toxicity against Candida in the absence of fluconazole and for toxicity against mammalian cells using a fluorescence reporter assay. The positive control for screening in the Candida and mammalian cell assays was the Hsp90 inhibitor geldanamycin (acting in concert with fluconazole; FIG. 4). Compounds that passed these four hurdles were binned through use of a Saccharomyces assay to determine whether the mechanism of action might be through the Hsp90 pathway, the calcineurin pathway, or an uncategorized mechanism.

[3] = test system: C. albicans CaCi-2; test: Secondary single-agent (no-fluconazole) activity assay; assay type: cell-based, Candida albicans; settings: in the absence of fluconazole; read-out: Target Potency (μM) Mean ± S.E.M CaCi-2^b IC50
Description: Clear, flat-bottom, black, 384-well plates were obtained from Corning. […] Pen/Strep was obtained from Gibco and prepared 100× in PBS. Fluconazole was obtained from Sigma and prepared in 2 mg/ml stock solution in PBS. Alamar Blue was obtained from Biosource International (Catalog No. DAL1100). Phosphate buffered solution (PBS) without calcium and magnesium was obtained from Cellgro.
Fungal inoculum was prepared as follows: 500 μl of yeast was inoculated from cryopreserved stock into a 250-ml shaker flask containing 30 ml growth medium and shaken overnight (16 hours) at 30° C. The culture was spun down, and the broth was poured off and washed with RPMI medium. The culture was spun down again, and the broth was poured off and resuspended in RPMI medium. The OD 600 of 1 ml of fungal culture in a cuvette was read using a standard optical density reader with growth medium as a background blank. The desired volume of fungal inoculum was diluted to starting OD of the fungal inoculum of 0.00015 A600.
Pen/Strep was added to the media to a final 1% concentration. A Combi NL (Thermo) was used to dispense 20 μl/well of assay media into all wells. Geldanamycin (1.5 mM) and fluconazole (0.2 mg/ml) were mixed for the positive control. Then, 80 nl of positive control solution was dispensed into the positive control wells using Thermo Combi nL for a final concentration of 3 μM geldanamycin and 8 μg/ml fluconazole. Then, 100 nl of test compound were pinned from the compound plates into assay plates using a CyBi-Well pin tool. A further 20 μl/well of RPMI synthetic defined medium culture was dispensed into 384-well, black plates. Fungal suspension (20 μl/well) was dispensed into all wells. The plates were incubated in a humidified (90% humidity) Liconic incubator at 37° C. without agitation for 48 hours. Alamar Blue Reagent was diluted 1:40 in Ca/Mg-free PBS. To all plates, 6.4 μl/well of the diluted Alamar Blue was added to the plates to a final dilution factor of 1:200. The plates were incubated for 2 hours at room temperature. Next, RFU of wells was read on a standard plate reader as a measure of relative fungal growth.

[4] = Plasma stability; settings: % remaining in human plasma after a 5-hour incubation
[5] = Plasma protein binding; settings: % bound in human plasma
[6] = 37° C., 48 hours, with 8 μg/mL (26 μM) fluconazole, average of at least three experiments
[7] = 37° C., 48 hours, with 8 μg/mL (26 μM) fluconazole, average of at least three experiments, read-out: CaCi-2 IC50
[8] = 37° C., 48 hours, with 8 μg/mL (26 μM) fluconazole, average of at least three experiments, read-out: CaCi-8 IC50
[9] = Table 12, read-out: CaCi-8 IC50 with 8 μg/ml fluconazole
[10] = in the presence of fluconazole, read-out: Target Potency (μM) Mean ± S.E.M CaCi-8^a IC50

COC(=O)Cn1nc(-c2ccccc2)c2cccnc21
CaCi-2 IC50 (μM) [1, 6]: inactive | CaCi-8 IC50 (μM) [2, 6]: inactive

COC(=O)Cn1nc(C(C)(C)C)c2ccccc21
CaCi-2 IC50 (μM) [1, 6]: inactive | CaCi-8 IC50 (μM) [2, 6]: inactive

COC(=O)Cn1nc(C2CC2)c2ccccc21
CaCi-2 IC50 (μM) [1, 6]: inactive | CaCi-8 IC50 (μM) [2, 6]: Inactive

COC(=O)Cn1nc(C2CCCCC2)c2ccccc21
IC50 [1, 7]: 2.3 ± 0.3 µM | IC50 [2, 8]: 6 ± 1.7 µM

COC(=O)Cn1nc(-c2cnco2)c2ccccc21
CaCi-2 IC50 (μM) [1, 6]: inactive | CaCi-8 IC50 (μM) [2, 6]: inactive

COC(=O)Cn1nc(-c2cscn2)c2ccccc21
IC50 [1, 7]: 12.9 ± 1.7 µM | CaCi-8 IC50 (μM) [2, 6]: inactive

COC(=O)Cn1nc(-c2cccc(C)c2)c2ccccc21 [CID 49835823]
IC50 ([1]; in the presence of fluconazole, read-out: CaCi-2 growth inhibition IC50): 0.65 µM | IC50 [2, 9]: 1.3 µM

COC(=O)Cn1nc(-c2cccc(F)c2)c2ccccc21 [CID 49835858]
IC50 ([1]; Table 12, read-out: CaCi-2 IC50 with 8 μg/ml fluconazole): 1.4 µM | IC50 [2, 9]: 2.1 µM

COC(=O)Cn1nc(-c2ccccc2)c2cc(F)ccc21 [Compound 5-F]
IC50 [1, 7]: 11.2 ± 7.2 µM | CaCi-8 IC50 (μM) [2, 6]: inactive

COC(=O)Cn1nc(-c2ccccc2)c2cc(C)ccc21 [Compound 5-Me]
IC50 [1, 7]: 5.2 ± 2.2 µM | IC50 [2, 8]: 8.2 ± 3.2 µM

COC(=O)Cn1nc(-c2ccccc2)c2cc(OC)ccc21 [Compound 5-OMe]
IC50 [1, 7]: 14.9 ± 5.7 µM | IC50 [2, 8]: 22.1 ± 6.2 µM

COC(=O)Cn1nc(-c2ccccc2)c2ccc(C(F)(F)F)cc21 [Compound 6-CF3]
CaCi-2 IC50 (μM) [1, 6]: inactive | CaCi-8 IC50 (μM) [2, 6]: inactive

COC(=O)Cn1nc(-c2ccccc2)c2ccc(C#N)cc21 [Compound 6-CN]
CaCi-2 IC50 (μM) [1, 6]: inactive | CaCi-8 IC50 (μM) [2, 6]: inactive

COC(=O)Cn1nc(-c2ccccc2)c2ccc(Cl)cc21 [Compound 6-Cl]
IC50 [1, 7]: 4 ± 1.3 µM | IC50 [2, 8]: 8.4 ± 0.5 µM

COC(=O)Cn1nc(-c2ccccc2)c2ccc(C)cc21 [Compound 6-Me]
IC50 [1, 7]: 5.9 ± 3.1 µM | CaCi-8 IC50 (μM) [2, 6]: inactive

COC(=O)Cn1nc(-c2ccccc2)c2ccc(OC)cc21 [Compound 6-OMe]
IC50 [1, 7]: 9.5 ± 2.5 µM | IC50 [2, 8]: 12.4 ± 0.5 µM

COC(=O)Cn1nc(-c2ccccc2)c2cccc(C(F)(F)F)c21 [Compound 7-CF3]
CaCi-2 IC50 (μM) [1, 6]: inactive | CaCi-8 IC50 (μM) [2, 6]: inactive

O=C(O)Cn1nc(-c2ccccc2)c2ccccc21 [Compound 5309553]
IC50 [3]: > 26 µM | IC50 [2, 10]: > 26 µM | Plasma Stability [4]: > 99% | Plasma Protein Binding [5]: 97%

COC(=O)Cn1nc(-c2ccccc2)c2cc(Cl)ccc21 [Compound 9551137]
IC50 [3]: > 26 µM | IC50 [2, 10]: 9.84 µM | Plasma Stability [4]: < 1.0% | Plasma Protein Binding [5]: > 99%

CCOC(=O)Cn1nc(-c2ccccc2)c2ccccc21 [Compound 13330959]
IC50 [3]: > 26 µM | IC50 [2, 10]: > 26 µM | Plasma Stability [4]: 20% | Plasma Protein Binding [5]: 99%

COC(=O)Cn1nc(-c2ccc(Cl)cc2)c2ccccc21 [Compound 46856253]
IC50 [3]: > 26 µM | IC50 [2, 10]: 11.6 µM | Plasma Stability [4]: 6.4% | Plasma Protein Binding [5]: > 99%

COC(=O)Cn1nc(-c2ccc(C)cc2)c2ccccc21 [Compound 46856255]
IC50 [3]: > 26 µM | IC50 [2, 10]: 11 µM | Plasma Stability [4]: 4.1% | Plasma Protein Binding [5]: 96%

COC(=O)Cn1nc(-c2ccccc2)c2ccc(OC)cc21 [Compound 49835812]
IC50 [3]: > 26 µM | IC50 [2, 10]: 12.7 µM | Plasma Stability [4]: 1.3% | Plasma Protein Binding [5]: 38%

CC(C)OC(=O)Cn1nc(-c2ccccc2)c2ccccc21 [Compound 49835820]
IC50 [3]: > 26 µM | IC50 [2, 10]: > 26 µM | Plasma Stability [4]: 53% | Plasma Protein Binding [5]: 99%

COCCn1nc(-c2ccccc2)c2ccccc21 [Compound 49835825]
IC50 [3]: > 26 µM | IC50 [2, 10]: > 26 µM | Plasma Stability [4]: 70% | Plasma Protein Binding [5]: > 99%

c1ccc(-c2nn(Cc3ncco3)c3ccccc23)cc1 [Compound 49835836]
IC50 [3]: > 26 µM | IC50 [2, 10]: 34.2 ± 7.9 µM | Plasma Stability [4]: 97% | Plasma Protein Binding [5]: > 99%

COC(=O)Cn1nc(-c2ccccc2)c2cc(OC)ccc21 [Compound 49835837]
IC50 [3]: > 26 µM | IC50 [2, 10]: 18.5 µM | Plasma Stability [4]: PBS Solubility: <1.0 μM Plasma Protein Binding: <1.0% Plasma Stability: <1.0% Purity (UPLC): >99% | Plasma Protein Binding [5]: PBS Solubility: <1.0 μM Plasma Protein Binding: <1.0% Plasma Stability: <1.0% Purity (UPLC): >99%

CC(C)(C)OC(=O)Cn1nc(-c2ccccc2)c2ccccc21 [Compound 49835839]
IC50 [3]: > 26 µM | IC50 [2, 10]: > 26 µM | Plasma Stability [4]: 85% | Plasma Protein Binding [5]: > 99%

CCCCn1nc(-c2ccccc2)c2ccccc21 [Compound 49835848]
IC50 [3]: > 26 µM | IC50 [2, 10]: > 26 µM | Plasma Stability [4]: 81% | Plasma Protein Binding [5]: > 99%

COC(=O)Cn1nc(-c2ccccc2)c2ccc(C(F)(F)F)cc21 [Compound 49835849]
IC50 [3]: > 26 µM | IC50 [2, 10]: 32.1 µM | Plasma Stability [4]: 1.7% | Plasma Protein Binding [5]: 62%

COC(=O)Cn1nc(-c2ccc(C#N)cc2)c2ccccc21 [Compound 49835863]
IC50 [3]: > 26 µM | IC50 [2, 10]: 20 µM | Plasma Stability [4]: < 1.0% | Plasma Protein Binding [5]: 92%

O=C(Cn1nc(-c2ccccc2)c2ccccc21)OC1CCC1 [Compound 49835870]
IC50 [3]: > 26 µM | IC50 [2, 10]: > 26 µM | Plasma Stability [4]: 2.0% | Plasma Protein Binding [5]: > 99%

COC(=O)C(C)(C)n1nc(-c2ccccc2)c2ccccc21 [Compound 49835873]
IC50 [3]: > 26 µM | IC50 [2, 10]: > 26 µM | Plasma Stability [4]: 63% | Plasma Protein Binding [5]: > 99%

COC(=O)Cn1nc(-c2ccccc2)c2ccccc21 [Compound I-16, methyl 3-phenyl-1H-indazole acetate]
IC50 ([1]; Candida albicans, CACI2, Table 12, read-out: CaCi-2 IC50 with 8 μg/ml fluconazole): 1.8 µM

COC(=O)Cn1nc(-c2ccc(C)cc2)c2ccccc21 [Cpd 30]
IC50 [1, 7]: 4.8 ± 2.5 µM | IC50 [2, 8]: 19.5 ± 14.2 µM
